Laboratory results published in ChEMBL document CHEMBL1781984 (J Nat Prod, 2011).

How the values were obtained:
[1] = tested on: NCI-H460; assay: Anticancer activity against human NCI-H460 cells; format: functional
[2] = tested on: KM-20L2; assay: Anticancer activity against human KM20L2 cells; format: functional
[3] = tested on: DU-145; assay: Anticancer activity against human DU145 cells; format: functional
[4] = tested on: BXPC-3; assay: Anticancer activity against human BxPC3 cells; format: functional
[5] = tested on: MCF7; assay: Anticancer activity against human MCF7 cells; format: functional
[6] = tested on: SF-268; assay: Anticancer activity against human SF268 cells; format: functional
[7] = Aqueous solubility of the compound in distilled water at 23 degC; format: physicochemical
[8] = tested on: P388; assay: Anticancer activity against mouse P388 cells; format: functional

SMILES	GI50 [1] [nM]	GI50 [2] [nM]	GI50 [3] [nM]	GI50 [4] [nM]	GI50 [5] [nM]	GI50 [6] [nM]	solubility [7] [mg/mL]	GI50 [8] [nM]
CC[C@H](C)[C@@H]([C@@H](CC(=O)N1CCC[C@H]1[C@H](OC)[C@@H](C)C(=O)Nc1ccc2ccccc2n1)OC)N(C)C(=O)[C@@H](NC(=O)[C@H](C(C)C)N(C)C)C(C)C	22.1	10.6	31.8	40.1	6.35	40.1	–	–
CC[C@H](C)[C@@H]([C@@H](CC(=O)N1CCC[C@H]1[C@H](OC)[C@@H](C)C(=O)Nc1ccc2ncccc2c1)OC)N(C)C(=O)[C@@H](NC(=O)[C@H](C(C)C)N(C)C)C(C)C	0.5	0.35	0.41	0.43	0.19	0.22	–	–
C1COCCN1.CC[C@H](C)[C@@H]([C@@H](CC(=O)N1CCC[C@H]1[C@H](OC)[C@@H](C)C(=O)NCCc1ccc(OP(=O)(O)O)cc1)OC)N(C)C(=O)[C@@H](NC(=O)[C@H](C(C)C)N(C)C)C(C)C [MORPHOLINE AURISTATIN TP]	–	–	–	–	–	–	> 72	–
CC[C@H](C)[C@@H]([C@@H](CC(=O)N1CCC[C@H]1[C@H](OC)[C@@H](C)C(=O)NCCc1ccc(OP(=O)(O)O)cc1)OC)N(C)C(=O)[C@@H](NC(=O)[C@H](C(C)C)N(C)C)C(C)C [POTASSIUM AURISTATIN TP]	–	–	–	–	–	–	–	8.7
C=C[C@H]1CN2CCC1C[C@H]2[C@H](O)c1ccnc2ccc(OC)cc12.CC[C@H](C)[C@@H]([C@@H](CC(=O)N1CCC[C@H]1[C@H](OC)[C@@H](C)C(=O)NCCc1ccc(OP(=O)(O)O)cc1)OC)N(C)C(=O)[C@@H](NC(=O)[C@H](C(C)C)N(C)C)C(C)C [Quinine Auristatin TP]	–	–	–	–	–	–	< 5	–
CC[C@H](C)[C@@H]([C@@H](CC(=O)N1CCC[C@H]1[C@H](OC)[C@@H](C)C(=O)NCCc1ccc(OP(=O)(O)O)cc1)OC)N(C)C(=O)[C@@H](NC(=O)[C@H](C(C)C)N(C)C)C(C)C [SODIUM AURISTATIN TP]	1.05	0.72	0.64	54.6	0.81	1.48	–	< 1.2
